Results published in publication PMC5400507, “The neuropeptide F/nitric oxide pathway is essential for shaping locomotor plasticity underlying locust phase transition” (eLife, 2017).

Columns and labels:
Format in all cases: in vivo, Locusta migratoria
[1] = system: NOS; assay: Total NOS activity in locust brains (NOS Kit); conditions: n = 4 samples
Description: (§1) An enzyme-linked immunosorbent assay (ELISA) kit (R and D Systems, Inc.) was used to detect the relative cAMP level in locust brains. For NO content determination, Total Nitric Oxide Assay Kit (Beyotime) was used. Because NO molecules are unstable, the total NO levels in all test groups were assessed by detecting the content of nitrate and nitrite. The NOS Kit (Nanjing Jiancheng Bioengineering Institute) was used to detect the total NOS activity in locust brains. Protein concentrations were measured using the BicinChoninic Acid (BCA) Protein Assay Kit (Thermo). All of these three measurements were performed according to the manufacturer’s instructions. Each measurement was from at least four biological replicates (12–16 locusts/replicate). Data were normalized to the protein concentration.

[2] = system: NO; assay: NO level in locust brains (Total Nitric Oxide Assay Kit); conditions: n = 4 samples
Description: as §1

[3] = system: locusts; assay: Behavioral arena assay (Pgreg, TDM, TDMV, attraction index); conditions: for attraction index: 2 hr after drug injection (L-NAME in G-phase, SNAP in S-phase) or 48 hr after NOS knockdown in G-phase; for behavioral phase state (Pgreg) / total distance moved (TDM) / total duration of movement (TDMV): n ≥ 23
Description: The concentrations of peptides and drugs that were used were determined according to described methods ([[…] and Yates, 2007]; [Van […] et al., 2013b]). […] Working solutions of different concentrations (0.05, 0.5 and 2.5 μg/μl) were injected into the hemolymph in the heads of fourth-instar locusts using a microinjector (2 μl/locust). The arena behavioral assay was conducted 1 hr, 2 hr, and 4 hr following injection. […] Working solution (100 μM) was microinjected into the heads of G-phase locusts (2 μl/locust). SNAP was dissolved with DMSO to prepare 100 mM stock solution. Working solution (200 μM) was microinjected into the heads of S-phase locusts (2 μl/locust). Locust behaviors were tested 2 hr after drug injection. The behavioral assay was performed in a rectangular Perspex arena (40 cm × 30 cm × 10 cm) containing three chambers. The left chamber (7.5 cm × 30 cm × 10 cm) contained 30 fourth-instar G-phase locusts as a stimulus group, and the right chamber was empty (7.5 cm × 30 cm × 10 cm). Locusts behaviors were recorded for 300 s by an EthoVision video tracking system and analyzed according to the binary logistic regression model constructed in our previous work ([Guo et al., 2011]). Details are as follow: […] AI = total duration in stimulus area - total duration in the opposite of stimulus area; this parameter represents the extent to which the tested animals are attracted by the stimulus group. TDMV (total duration of movement) and TDM (total distance moved) indicate the locomotor activity levels. Pgreg indicates the probability that a locust is considered gregarious. […] In the behavioral assay, 16-35 locusts were tested for each treatment according to the sample size reported in previous studies ([Ott et al., 2012]; [Ma et al., 2011]). […] Two hours later, SNAP (200 μM, 2 μl/locust) was injected into the heads of the experimental insects. Control insects were treated with an equal amount of saline. The injected locusts were then raised under the gregarious condition and subjected to behavioral analysis 2 hr after injection of SNAP. For S-phase locusts, […] or […] was microinjected into the brains of fourth-instar S-phase insects. […] The insects treated with dsGFP were used as a control.

[4] = S-phase locust brains, 2 hr after SNAP injection
[5] = G-phase locusts pre-injected with NPF1a or NPF2 peptide, SNAP 200 μM, 2 μl/locust 2 hr later, tested 2 hr after SNAP, n ≥ 24
[6] = S-phase locusts, 2 hr after injection of SNAP (200 μM, 2 μl/locust)
[7] = G-phase locust brains, 2 hr after L-NAME injection or 48 hr after NOS knockdown
[8] = G-phase locusts, 2 hr after injection of L-NAME (100 μM, 2 μl/locust) or 48 hr after NOS knockdown
[9] = S-phase locusts pre-injected with dsNPFR or dsNPYR, 2 hr after L-NAME injection, n ≥ 16

Molecule | NOS activity [1, 4] | NO levels [2, 4] | attraction index [3] | Pgreg, rescue [3, 5] | total distance moved, rescue [3, 5] | total duration of movement, rescue [3, 5] | behavioral phase state (Pgreg) [3, 6] | total distance moved (TDM) [3, 6] | total duration of movement (TDMV) [3, 6] | NOS activity [1, 7] | NO levels [2, 7] | behavioral phase state (Pgreg) [3, 8] | total distance moved (TDM) [3, 8] | total duration of movement (TDMV) [3, 8] | Pgreg increase induced by NPFR or NPYR knockdown [3, 9] | total distance moved increase induced by NPFR or NPYR knockdown [3, 9] | total duration of movement increase induced by NPFR or NPYR knockdown [3, 9]
S-nitroso-N-acetyl-penicillamine [SNAP] | without affecting NOS activity | increased | did not change the attraction index | robust recovery | robust recovery | robust recovery | pushed locust behavioral change from S-phase to G-phase state | enhanced | enhanced |  |  |  |  |  |  |  | 
COC(=O)[C@@H](N)CCCNC(N)=N[N+](=O)[O-] [L-NAME, N-Nitro-L-arginine Methyl Ester] |  |  | did not change the attraction index |  |  |  |  |  |  | significantly reduced | significantly reduced | S-phase-like behavior | strongly suppressed | strongly suppressed | robustly abolished the increase | robustly abolished the increase | robustly abolished the increase
